Values after ≈ are worked out from the molar mass of the structure shown.

Experimental findings from ChEMBL document CHEMBL5154788 (Eur J Med Chem, 2022) are described below.

Series [1] addresses Transient receptor potential cation channel subfamily V member 1 (Homo sapiens, UniProt Q8NER1). Briefly: Antagonist activity at human TRPV1 expressed in CHO cells assessed as inhibition of capsaicin-induced Ca2+ influx incubated for 30 mins by FLIPR method. The series is classed as cell-based.
Series [2] in a line: Elimination rate constant (K10) in Sprague-Dawley rat at 10 mg/kg, iv measured after 12 hrs by UPLC-QTOF/MS analysis. The series is classed as ADME, organism-based. Particulars: in vivo.
Series [3] can be described thus: Toxicity in rat assessed as effect on body temperature at 10 to 100 mg/kg, po measured for 120 mins by electric probe thermometer analysis. The series is classed as organism-based. Particulars: in vivo, 2 h, dose 10-100 mg/kg.
Series [4] can be described thus: Clearance in Sprague-Dawley rat at 20 mg/kg, po measured after 12 hrs by UPLC-QTOF/MS analysis. The series is classed as ADME, organism-based. Particulars: in vivo.
A short description of series [5]: Cmax in Sprague-Dawley rat at 20 mg/kg, po measured after 12 hrs by UPLC-QTOF/MS analysis. Also noted: dose 20 mg/kg, time 12 hrs, route po. To be noted: in vivo. The series is classed as ADME, organism-based.
Series [6] is described as follows: Half life in Sprague-Dawley rat at 10 mg/kg, iv measured after 12 hrs by UPLC-QTOF/MS analysis. The series is classed as ADME, organism-based. To be noted: in vivo.
Series [7] in a line: MRT in Sprague-Dawley rat at 20 mg/kg, po measured after 12 hrs by UPLC-QTOF/MS analysis. The series is classed as ADME, organism-based. To be noted: in vivo.
Series [8] is described as follows: Elimination rate constant half life (k10) in Sprague-Dawley rat at 20 mg/kg, po measured after 12 hrs by UPLC-QTOF/MS analysis. The series is classed as ADME, organism-based. To be noted: in vivo, read-out: beta t1/2 (converted).
The nature of series [9]: Drug concentration in rat brain at 10 mg/kg, iv measured after 0.5 hrs by HPLC analysis. The series is classed as ADME, organism-based. Particulars: read-out: Ct.
Series [10] is described as follows: Clearance in Sprague-Dawley rat at 10 mg/kg, iv measured after 12 hrs by UPLC-QTOF/MS analysis. Particulars: in vivo. The series is classed as ADME, organism-based.
Series [11] concerns the target T1, Transient receptor potential cation channel subfamily V member 3 (Homo sapiens, UniProt Q8NET8).
T1 sequence (Q8NET8 whole entry): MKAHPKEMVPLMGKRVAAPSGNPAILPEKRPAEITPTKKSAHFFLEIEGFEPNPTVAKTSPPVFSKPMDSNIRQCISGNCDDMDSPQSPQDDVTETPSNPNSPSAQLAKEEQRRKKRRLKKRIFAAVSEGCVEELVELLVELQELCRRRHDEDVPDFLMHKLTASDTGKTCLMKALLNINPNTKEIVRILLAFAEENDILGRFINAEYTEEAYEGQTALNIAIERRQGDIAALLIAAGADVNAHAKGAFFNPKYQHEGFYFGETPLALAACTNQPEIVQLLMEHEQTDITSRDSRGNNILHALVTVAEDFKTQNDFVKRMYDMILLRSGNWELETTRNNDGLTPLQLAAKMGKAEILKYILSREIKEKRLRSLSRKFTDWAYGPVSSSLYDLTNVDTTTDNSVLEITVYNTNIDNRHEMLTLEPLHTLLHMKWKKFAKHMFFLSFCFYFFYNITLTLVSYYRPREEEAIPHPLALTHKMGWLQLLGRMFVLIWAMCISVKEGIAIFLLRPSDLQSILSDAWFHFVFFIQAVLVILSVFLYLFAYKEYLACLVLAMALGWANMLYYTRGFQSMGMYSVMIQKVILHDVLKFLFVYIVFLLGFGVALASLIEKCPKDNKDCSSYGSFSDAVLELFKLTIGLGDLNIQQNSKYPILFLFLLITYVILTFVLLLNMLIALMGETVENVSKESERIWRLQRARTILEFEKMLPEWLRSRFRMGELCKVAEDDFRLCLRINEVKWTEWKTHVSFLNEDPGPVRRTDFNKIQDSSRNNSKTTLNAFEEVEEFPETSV
The series can be described thus: Antagonist activity against human TRPV3 expressed in HEK293 cells assessed as inhibition of 2-APb induced intracellular calcium accumulation incubated for 30 mins by FLIPR assay. The series is classed as cell-based. For orientation: Calcium assays in cells follow changes in intracellular calcium, usually with a dye or a luminescent sensor.

A short description of series [12]: MRT in Sprague-Dawley rat at 10 mg/kg, iv measured after 12 hrs by UPLC-QTOF/MS analysis. The series is classed as ADME, organism-based. Particulars: in vivo.
The nature of series [13]: Toxicity in rat assessed as increase in body temperature at 30 mg/kg, po measured for 180 mins by electric probe thermometer analysis. The series is classed as organism-based. To be noted: in vivo, 3 h.
Series [14] is described as follows: Drug concentration in rat plasma at 10 mg/kg, iv measured after 0.5 hrs by HPLC analysis. The series is classed as ADME, organism-based.
Series [15] can be described thus: AUC (0 to infinity) in Sprague-Dawley rat at 10 mg/kg, iv by UPLC-QTOF/MS analysis. The series is classed as ADME, organism-based. More on the design: time infinity, dose 10 mg/kg, route iv. To be noted: in vivo.
Series [16] in a line: Aqueous solubility of compound at pH 7.4 incubated for 2 hrs by LC-UV/MS analysis. Particulars: buffer. The series is classed as physicochemical.
Series [17] is described as follows: Tmax in Sprague-Dawley rat at 20 mg/kg, po measured after 12 hrs by UPLC-QTOF/MS analysis. The series is classed as ADME, organism-based. Particulars: in vivo.
The nature of series [18]: Volume of distribution in Sprague-Dawley rat at 20 mg/kg, po measured after 12 hrs post dose by UPLC-QTOF/MS analysis. The series is classed as ADME, organism-based. Particulars: in vivo.
A short description of series [19]: AUC (0 to infinity) in Sprague-Dawley rat at 20 mg/kg, po by UPLC-QTOF/MS analysis. The series is classed as ADME, organism-based. Also noted: time infinity, dose 20 mg/kg, route po. To be noted: in vivo.
The nature of series [20]: Ratio of drug level in brain to plasma in rat at 10 mg/kg, iv measured after 0.5 hrs by HPLC analysis. The series is classed as ADME, organism-based. To be noted: read-out: BPR.
Series [21] is described as follows: Elimination rate constant (K10) in Sprague-Dawley rat at 20 mg/kg, po measured after 12 hrs by UPLC-QTOF/MS analysis. The series is classed as ADME, organism-based. Particulars: in vivo.
The nature of series [22]: Oral bioavailability in Sprague-Dawley rat at 20 mg/kg measured after 12 hrs by UPLC-QTOF/MS analysis. The series is classed as ADME, organism-based. To be noted: in vivo.
Series [23] addresses Transient receptor potential cation channel subfamily A member 1 (Homo sapiens, UniProt O75762). Briefly: Antagonist activity against human TRPA1 expressed in HEK293 cells assessed as inhibition of AITC-induced intracellular calcium accumulation incubated for 30 mins by FLIPR assay. The series is classed as cell-based.
Series [24] addresses Transient receptor potential cation channel subfamily M member 8 (Homo sapiens, UniProt Q7Z2W7). Briefly: Antagonist activity against human TRPM8 expressed in HEK293 cells assessed as inhibition of […]-gated currents by whole cell patch clamp electrophysiology. The series is classed as cell-based. (In patch-clamp work, channel activity is measured electrically.)

Chain of Transient receptor potential cation channel subfamily V member 1 (Q8NER1 whole entry): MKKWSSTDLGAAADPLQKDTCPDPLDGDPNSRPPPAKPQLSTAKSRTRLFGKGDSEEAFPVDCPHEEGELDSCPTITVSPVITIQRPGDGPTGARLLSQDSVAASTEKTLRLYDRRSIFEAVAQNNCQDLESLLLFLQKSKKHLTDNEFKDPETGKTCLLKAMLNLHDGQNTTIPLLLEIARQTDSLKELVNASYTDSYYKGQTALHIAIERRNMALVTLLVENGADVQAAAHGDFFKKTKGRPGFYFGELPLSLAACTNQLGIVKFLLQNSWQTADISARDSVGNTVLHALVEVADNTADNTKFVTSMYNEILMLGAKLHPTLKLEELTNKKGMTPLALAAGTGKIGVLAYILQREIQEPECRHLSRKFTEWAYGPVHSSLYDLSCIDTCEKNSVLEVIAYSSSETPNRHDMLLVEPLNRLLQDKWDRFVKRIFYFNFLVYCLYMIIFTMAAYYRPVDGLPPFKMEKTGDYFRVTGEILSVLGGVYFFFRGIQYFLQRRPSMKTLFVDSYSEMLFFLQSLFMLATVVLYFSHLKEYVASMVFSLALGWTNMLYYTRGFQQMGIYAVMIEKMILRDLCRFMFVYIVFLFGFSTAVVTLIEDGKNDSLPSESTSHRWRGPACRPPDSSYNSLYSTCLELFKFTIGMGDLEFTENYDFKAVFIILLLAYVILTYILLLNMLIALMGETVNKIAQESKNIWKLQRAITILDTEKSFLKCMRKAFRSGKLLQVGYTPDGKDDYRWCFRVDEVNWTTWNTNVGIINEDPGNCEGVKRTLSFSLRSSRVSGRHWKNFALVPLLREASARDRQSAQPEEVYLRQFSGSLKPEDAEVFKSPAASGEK
Chain of Transient receptor potential cation channel subfamily M member 8 (Q7Z2W7 whole entry): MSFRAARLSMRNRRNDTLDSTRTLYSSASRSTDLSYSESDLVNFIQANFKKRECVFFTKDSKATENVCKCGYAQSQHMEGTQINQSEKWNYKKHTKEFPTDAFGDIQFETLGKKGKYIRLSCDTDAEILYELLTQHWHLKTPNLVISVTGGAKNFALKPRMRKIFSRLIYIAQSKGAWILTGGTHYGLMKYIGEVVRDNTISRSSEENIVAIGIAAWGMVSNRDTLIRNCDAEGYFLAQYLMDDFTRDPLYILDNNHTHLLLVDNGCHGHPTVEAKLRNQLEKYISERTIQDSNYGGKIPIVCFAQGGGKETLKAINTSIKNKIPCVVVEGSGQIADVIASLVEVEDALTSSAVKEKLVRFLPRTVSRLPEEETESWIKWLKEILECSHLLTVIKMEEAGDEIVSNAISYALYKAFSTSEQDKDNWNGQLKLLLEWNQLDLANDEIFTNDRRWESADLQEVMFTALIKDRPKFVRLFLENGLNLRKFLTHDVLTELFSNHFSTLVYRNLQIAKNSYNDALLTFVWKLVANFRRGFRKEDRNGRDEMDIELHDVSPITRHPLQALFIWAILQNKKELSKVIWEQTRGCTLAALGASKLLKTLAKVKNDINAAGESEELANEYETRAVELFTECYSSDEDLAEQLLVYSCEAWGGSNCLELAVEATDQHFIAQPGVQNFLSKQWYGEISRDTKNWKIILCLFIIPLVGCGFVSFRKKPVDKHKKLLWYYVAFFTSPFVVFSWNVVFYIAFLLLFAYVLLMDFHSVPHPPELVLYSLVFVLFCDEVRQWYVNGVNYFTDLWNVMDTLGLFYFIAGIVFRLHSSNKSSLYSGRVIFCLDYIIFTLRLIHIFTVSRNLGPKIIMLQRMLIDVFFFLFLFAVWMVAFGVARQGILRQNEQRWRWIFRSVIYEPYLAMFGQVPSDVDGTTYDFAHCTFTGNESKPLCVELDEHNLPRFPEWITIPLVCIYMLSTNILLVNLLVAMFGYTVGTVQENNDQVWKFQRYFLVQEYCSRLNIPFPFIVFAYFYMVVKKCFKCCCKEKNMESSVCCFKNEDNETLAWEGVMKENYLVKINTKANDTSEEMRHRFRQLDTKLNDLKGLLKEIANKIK
Chain of Transient receptor potential cation channel subfamily A member 1 (O75762 whole entry): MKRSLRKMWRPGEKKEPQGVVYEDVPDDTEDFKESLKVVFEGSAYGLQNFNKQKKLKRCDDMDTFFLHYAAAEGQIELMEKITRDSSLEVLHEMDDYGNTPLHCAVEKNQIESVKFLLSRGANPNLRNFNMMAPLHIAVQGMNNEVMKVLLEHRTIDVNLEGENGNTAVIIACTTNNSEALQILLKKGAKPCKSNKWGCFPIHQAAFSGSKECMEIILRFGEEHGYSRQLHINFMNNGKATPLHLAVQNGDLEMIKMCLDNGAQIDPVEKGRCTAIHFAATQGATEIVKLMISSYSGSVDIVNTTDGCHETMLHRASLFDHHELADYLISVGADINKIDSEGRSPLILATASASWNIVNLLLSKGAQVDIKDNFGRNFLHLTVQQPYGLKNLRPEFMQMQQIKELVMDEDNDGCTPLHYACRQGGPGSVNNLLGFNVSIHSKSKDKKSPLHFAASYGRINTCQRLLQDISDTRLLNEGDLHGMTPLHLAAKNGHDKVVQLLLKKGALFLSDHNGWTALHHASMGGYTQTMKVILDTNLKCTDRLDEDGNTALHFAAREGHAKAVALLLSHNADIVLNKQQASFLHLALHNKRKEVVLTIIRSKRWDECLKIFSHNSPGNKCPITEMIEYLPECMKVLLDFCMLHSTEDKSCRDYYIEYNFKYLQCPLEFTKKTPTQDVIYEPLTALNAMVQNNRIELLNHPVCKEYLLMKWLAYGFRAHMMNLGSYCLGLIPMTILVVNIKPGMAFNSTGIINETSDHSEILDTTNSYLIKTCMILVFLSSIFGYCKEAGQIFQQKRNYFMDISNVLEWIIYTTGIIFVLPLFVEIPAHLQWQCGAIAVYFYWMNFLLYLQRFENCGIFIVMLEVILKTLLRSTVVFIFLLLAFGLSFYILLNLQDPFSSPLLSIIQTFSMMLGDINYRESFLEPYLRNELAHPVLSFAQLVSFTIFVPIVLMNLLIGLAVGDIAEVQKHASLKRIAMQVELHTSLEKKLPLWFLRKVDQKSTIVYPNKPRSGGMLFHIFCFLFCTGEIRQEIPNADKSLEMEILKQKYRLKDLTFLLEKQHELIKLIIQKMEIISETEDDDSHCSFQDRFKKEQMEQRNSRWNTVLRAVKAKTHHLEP

In the case of `O=C(Nc1cccc2cnccc12)N1CCC[C@H]1c1nc(-c2cccc(F)c2)cs1`, the IC50 in series [1] was 80.6 nM.
As for `CC(C)c1cccc(NC(=O)N2CCC[C@H]2c2ncc(-c3ccccc3)s2)c1`, the values for the k el at 12 h in [2] and in series [21] were 0.00335 s⁻¹ and 0.000315 s⁻¹, respectively. The IC50 in [1] was 2.66 nM; in series [11], over 100000 nM; in series [23], over 100000 nM. Moreover, the Activity entry in [3] and in series [13] was “Non-Toxic” each time. The figures for the clearance in series [4] and in series [10] were 367 mL/min/kg and 400 mL/min/kg, respectively. Further, the Cmax in [5] turned out to be 311 ng/mL. The values for the half-life in series [6] and in series [8] were 6.36 min and 31.6 min, respectively. For the same molecule, the values for the mean residence time MRT in [7] and in [12] were 85.6 min and 9.18 min, respectively. The concentration at 0.5 h in series [9] came to 2310 ng/g; in series [14], 1400 ng/g. Further, the AUC in series [15] was found to be 495.955 ng·h/mL; in series [19] it was 598.873 ng·h/mL. In series [16], this molecule registered a solubility at 2 h of 26 µg/mL (≈ 66.4 µM). In addition, the Tmax in series [17] was 42.7 min. This molecule also had a Vd in [18] of 16 L/kg. Also, the Kp at 0.5 h in series [20] is 1.66. For the same molecule, the bioavailability in [22] turned out to be 60%.
With `O=C(Nc1cccc2cnccc12)N1CCC[C@H]1c1nc(-c2ccccc2)cs1`, the IC50 in [1] came to 67.6 nM.
Same read-out and setting: with `CC(C)c1ccccc1NC(=O)N1CCC[C@H]1c1ncc(-c2ccccc2)s1` the figure was 5.32 nM; with `O=C(Nc1ccccc1[N+](=O)[O-])N1CCC[C@H]1c1ncc(-c2ccccc2)s1`, 12.4 nM.
Regarding `COc1ccccc1NC(=O)N1CCC[C@H]1c1nc(-c2ccc(F)cc2)cs1`, in [1], the half-inhibitory concentration (IC50) was determined as 5.71 nM. In series [13], the Activity entry is “Toxic”.
For the molecule `O=C(Nc1cccc2cnccc12)N1CCC[C@H]1c1nc(-c2ccc(F)cc2)cs1`, the 50% inhibitory concentration (IC50) in series [1] was 24.3 nM.
Same read-out and setting: for `O=C(Nc1ccc(Cl)cc1)N1CCC[C@H]1c1nc(-c2ccc(F)cc2)cs1` the value was 10.7 nM; for `O=C(Nc1ccc(F)cc1)N1CCC[C@H]1c1nc(-c2ccc(F)cc2)cs1`, 24.6 nM; for `Cc1ccc(C)c(NC(=O)N2CCC[C@H]2c2nc(-c3ccccc3)cs2)c1`, 44.4 nM.
Same read-out and setting: with `O=C(Nc1ccc(F)cc1)N1CCC[C@H]1c1nc(-c2ccccc2)cs1` the figure was 31.6 nM; with `Cc1ccc(NC(=O)N2CCC[C@H]2c2ncc(-c3ccccc3)s2)c([N+](=O)[O-])c1`, 23.9 nM.
Take `O=C(Nc1ccccc1Br)N[C@@H]1CCN(c2ccc(C(F)(F)F)cn2)C1` [SB-705498]: the figures for the IC50 in series [1] and in series [24] were 9.24 nM and 1600 nM, respectively. In [13], the Activity entry is listed as “Non-Toxic”. For the same molecule, the Kp at 0.5 h in [20] is 0.5.

Usually IC50 stands for the concentration that inhibits the measured activity by half. What is called Cmax is the maximum level reached in the sampled fluid or tissue. By MRT is commonly meant the average time that molecules of a dose stay in the body. A word on the AUC: it is the area under the concentration-time curve, a measure of exposure. A lower AUC goes with low exposure. The solubility is the concentration that dissolves in the medium under given conditions. By Tmax is commonly meant the time at which the peak concentration occurs. One may read the bioavailability as the share of a dose that reaches the circulation, judged against a reference dose that is usually intravenous. Low values mean poor availability, high ones good availability.
